Assay results published in ChEMBL document CHEMBL1201862, “PubChem BioAssay data set” (2004).
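Method: 48-hour compound exposure of cells in 96-well plates, five concentrations, linear interpolation of endpoints. GI50: concentration for 50% inhibition of growth.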 Activity calls are given as the source filed them. Cut-off read from the data, not from the text of the source: active = GI50 up to about 1.1 µM and inactive = higher. *1 amine or outer side, *2 acyl side, *3 side chain or, on linkers, in order; H or OH if unused. Where a SMILES comes first, the peptide text is derived from it. [ ]: non-standard residue; d: D form. The star is where a group is joined. X31 = CC(=O)N(C)SCC(N[*:1])C(=O)[*:2]; Fmoc = O=C(OCC1c2ccccc2-c2ccccc21)*; For = O=C*

Key:
Test in all cases: inhibition of tumour cell growth, NCI panel, 48 h
[1] = test system: OVCAR-8
[2] = test system: MDA-MB-231
[3] = test system: A498
[4] = test system: HOP-92
[5] = test system: MDA-MB-435
[6] = test system: SN12C
[7] = test system: HCT-15
[8] = test system: K562
[9] = test system: SK-MEL-5
[10] = test system: OVCAR-5
[11] = test system: NCI-H460
[12] = test system: M14
[13] = test system: LOX IMVI
[14] = test system: PC-3
[15] = test system: SR
[16] = test system: TK-10
[17] = test system: MOLT-4
[18] = test system: SNB-75
[19] = test system: 786-0
[20] = test system: EKVX

SMILES	GI50 [1]	GI50 [2]	GI50 [3]	GI50 [4]	GI50 [5]	GI50 [6]	GI50 [7] [µM]	GI50 [8]	GI50 [9]	GI50 [10]	GI50 [11]	GI50 [12]	GI50 [13]	GI50 [14]	GI50 [15]	GI50 [16]	GI50 [17]	GI50 [18]	GI50 [19]	GI50 [20]
O=c1cc(-c2ccccc2F)[nH]c2cc3c(cc12)OCO3	0.265 µM (active)	0.29 µM (active)	0.0724 µM (active)	0.212 µM (active)	< 0.01 µM (active)	0.281 µM (active)	0.0417	0.0628 µM (active)	0.0211 µM (active)	1.31 µM (inactive)	0.107 µM (active)	0.0528 µM (active)	0.119 µM (active)	0.0495 µM (active)	0.0147 µM (active)	2.88 µM (inactive)	0.245 µM (active)	0.247 µM (active)	0.182 µM (active)	–
O=S(=O)(O)CCS [MESNA]	> 100 µM (inactive)	> 100 µM (inactive)	> 100 µM (inactive)	> 100 µM (inactive)	> 100 µM (inactive)	> 100 µM (inactive)	> 100	> 100 µM (inactive)	> 100 µM (inactive)	> 100 µM (inactive)	> 100 µM (inactive)	> 100 µM (inactive)	> 100 µM (inactive)	> 100 µM (inactive)	> 100 µM (inactive)	–	> 100 µM (inactive)	39.7 µM (inactive)	> 100 µM (inactive)	> 100 µM (inactive)
C=C[C@]1(O)CCC[C@]2(C)C(=O)CCC12C (stereo partly drawn)	> 100 µM (inactive)	> 100 µM (inactive)	> 100 µM (inactive)	> 100 µM (inactive)	> 100 µM (inactive)	> 100 µM (inactive)	> 100	> 100 µM (inactive)	> 100 µM (inactive)	> 100 µM (inactive)	> 100 µM (inactive)	> 100 µM (inactive)	> 100 µM (inactive)	> 100 µM (inactive)	> 100 µM (inactive)	–	> 100 µM (inactive)	–	> 100 µM (inactive)	> 100 µM (inactive)
Cc1nn(-c2ccccc2)c2c1N=C(C(=O)O)CC(c1ccccc1)=N2	> 10 µM (inactive)	> 10 µM (inactive)	–	> 10 µM (inactive)	> 10 µM (inactive)	> 10 µM (inactive)	> 10	> 10 µM (inactive)	> 10 µM (inactive)	–	–	> 10 µM (inactive)	> 10 µM (inactive)	> 10 µM (inactive)	> 10 µM (inactive)	> 10 µM (inactive)	> 10 µM (inactive)	> 10 µM (inactive)	> 10 µM (inactive)	–
Cc1cc(CN2CCCCC2)c(O)c(CN2CCCCC2)c1	> 100 µM (inactive)	> 100 µM (inactive)	> 100 µM (inactive)	> 100 µM (inactive)	> 100 µM (inactive)	> 100 µM (inactive)	> 100	> 100 µM (inactive)	> 100 µM (inactive)	> 100 µM (inactive)	> 100 µM (inactive)	> 100 µM (inactive)	> 100 µM (inactive)	> 100 µM (inactive)	> 100 µM (inactive)	> 100 µM (inactive)	–	> 100 µM (inactive)	> 100 µM (inactive)	> 100 µM (inactive)
N=C(N)NS(=O)(=O)c1ccc(NNc2c3ccccc3nc3ccccc23)cc1	6.38 µM (inactive)	15.7 µM (inactive)	–	2.96 µM (inactive)	16.2 µM (inactive)	4.23 µM (inactive)	18.6	6.04 µM (inactive)	9.31 µM (inactive)	17.6 µM (inactive)	2.7 µM (inactive)	12.8 µM (inactive)	3.59 µM (inactive)	8.75 µM (inactive)	0.596 µM (active)	16.4 µM (inactive)	0.472 µM (active)	16.5 µM (inactive)	10.1 µM (inactive)	10.6 µM (inactive)
CC(=O)N(C)SCC(NC(=O)C(Cc1ccccc1)NC(=O)OCC1c2ccccc2-c2ccccc21)C(=O)NC(Cc1ccccc1)C(=O)NC(Cc1cn(C=O)c2ccccc12)C(=O)NC(CCCCNC(=O)OCC1c2ccccc2-c2ccccc21)C(=O)NC(C(=O)NC(CSN(C)C(C)=O)C(=O)NC(C(N)=O)C(C)O)C(C)O (stereo not drawn) (Fmoc-F[X31]FW(For)K(Fmoc)T[X31]T-NH2; configuration not given here)	> 100 µM (inactive)	14.9 µM (inactive)	–	14.5 µM (inactive)	94.4 µM (inactive)	> 100 µM (inactive)	95.1	> 100 µM (inactive)	55.1 µM (inactive)	> 100 µM (inactive)	33.5 µM (inactive)	31 µM (inactive)	> 100 µM (inactive)	97.1 µM (inactive)	76.9 µM (inactive)	24.2 µM (inactive)	> 100 µM (inactive)	33.1 µM (inactive)	> 100 µM (inactive)	84.9 µM (inactive)
CCOP(=O)(OCC)[C@H](O)c1ccsc1	> 100 µM (inactive)	> 100 µM (inactive)	> 100 µM (inactive)	–	> 100 µM (inactive)	> 100 µM (inactive)	> 100	> 100 µM (inactive)	> 100 µM (inactive)	> 100 µM (inactive)	> 100 µM (inactive)	> 100 µM (inactive)	> 100 µM (inactive)	> 100 µM (inactive)	> 100 µM (inactive)	> 100 µM (inactive)	> 100 µM (inactive)	> 100 µM (inactive)	> 100 µM (inactive)	> 100 µM (inactive)
CCOC(=O)C(=O)N/N=C1\C(=O)Nc2ccccc21	> 100 µM (inactive)	> 100 µM (inactive)	> 100 µM (inactive)	–	> 100 µM (inactive)	> 100 µM (inactive)	> 100	> 100 µM (inactive)	> 100 µM (inactive)	> 100 µM (inactive)	> 100 µM (inactive)	> 100 µM (inactive)	> 100 µM (inactive)	> 100 µM (inactive)	> 100 µM (inactive)	> 100 µM (inactive)	> 100 µM (inactive)	> 100 µM (inactive)	> 100 µM (inactive)	> 100 µM (inactive)
C=C1C(=O)O[C@H]2C/C(C)=C/CC[C@]3(C)CCC[C@](C)(CC[C@@H]12)O3	7.64 µM (inactive)	13.3 µM (inactive)	–	6.46 µM (inactive)	7.01 µM (inactive)	12.7 µM (inactive)	10.8	8.49 µM (inactive)	6.44 µM (inactive)	13.7 µM (inactive)	6.79 µM (inactive)	–	12.2 µM (inactive)	12.6 µM (inactive)	4.61 µM (inactive)	8.38 µM (inactive)	6.71 µM (inactive)	11.9 µM (inactive)	5.77 µM (inactive)	9.04 µM (inactive)
C/C(=N\O)c1cccc(Nc2c3ccccc3nc3occc23)c1	13.7 µM (inactive)	4.51 µM (inactive)	16.7 µM (inactive)	7.24 µM (inactive)	2.24 µM (inactive)	11.8 µM (inactive)	3.38	3.58 µM (inactive)	3.07 µM (inactive)	48 µM (inactive)	5.15 µM (inactive)	8.15 µM (inactive)	5.78 µM (inactive)	17.7 µM (inactive)	2.79 µM (inactive)	10.1 µM (inactive)	4.25 µM (inactive)	–	13.4 µM (inactive)	5.86 µM (inactive)
COc1cc([N+](=O)[O-])c(S(=O)(=O)O)cc1NS(=O)(=O)c1ccc(C)cc1	> 100 µM (inactive)	> 100 µM (inactive)	> 100 µM (inactive)	–	> 100 µM (inactive)	> 100 µM (inactive)	> 100	> 100 µM (inactive)	> 100 µM (inactive)	> 100 µM (inactive)	> 100 µM (inactive)	> 100 µM (inactive)	> 100 µM (inactive)	> 100 µM (inactive)	> 100 µM (inactive)	> 100 µM (inactive)	> 100 µM (inactive)	> 100 µM (inactive)	> 100 µM (inactive)	> 100 µM (inactive)
C=C1C(=O)OC2C1CC(O)/C(C)=C\CCC1(C)OC21 (stereo not drawn)	33.8 µM (inactive)	15.5 µM (inactive)	43 µM (inactive)	34.6 µM (inactive)	27.2 µM (inactive)	–	16.3	–	21 µM (inactive)	23.8 µM (inactive)	31.8 µM (inactive)	23.1 µM (inactive)	27 µM (inactive)	23.2 µM (inactive)	20.2 µM (inactive)	39.3 µM (inactive)	7.35 µM (inactive)	39.8 µM (inactive)	31 µM (inactive)	36.7 µM (inactive)
Nc1ccc(Oc2ccc(C3(c4ccc(Oc5ccc(N)c(O)c5)cc4)C4CC5C6CC7CC5C3C(C7)C6C4)cc2)cc1O	1.8 µM (inactive)	1.89 µM (inactive)	2.55 µM (inactive)	1.77 µM (inactive)	1.53 µM (inactive)	1.55 µM (inactive)	2.4	2.19 µM (inactive)	3.86 µM (inactive)	1.31 µM (inactive)	2.41 µM (inactive)	1.45 µM (inactive)	2.1 µM (inactive)	1.86 µM (inactive)	2.25 µM (inactive)	3.15 µM (inactive)	2.07 µM (inactive)	–	1.73 µM (inactive)	1.38 µM (inactive)
O=C(O)CN1CCNCCN(CP(=O)(O)O)CC1	–	> 70.1 µM (inactive)	> 19.7 µM (inactive)	22.3 µM (inactive)	> 53 µM (inactive)	> 100 µM (inactive)	4.25	3.92 µM (inactive)	4.28 µM (inactive)	6.52 µM (inactive)	3.44 µM (inactive)	16.6 µM (inactive)	–	9.73 µM (inactive)	> 20.2 µM (inactive)	> 37.2 µM (inactive)	4.34 µM (inactive)	14.2 µM (inactive)	4.83 µM (inactive)	13.2 µM (inactive)
